US10597388B2, “Pyridazinone herbicides” (FMC CORPORATION, priority 2014, dated 2020)

Legend:
Type in all cases: in vivo
[1] = test system: galium (catchweed bedstraw, Galium aparine); assay: Test A greenhouse herbicide test, postemergence; conditions: for Galium plant response rating: 0 to 100 scale, 0 is no effect, 100 is complete control
Excerpt: (§1) At the same time, plants selected from these crop and weed species and also blackgrass (Alopecurus myosuroides), and galium (catchweed bedstraw, Galium aparine) were planted in pots containing the same blend of loam soil and sand and treated with postemergence applications of test chemicals formulated in the same manner. Plants ranged in height from 2 to 10 cm and were in the one- to two-leaf stage for the postemergence treatment. Treated plants and untreated controls were maintained in a greenhouse for approximately 10 d, after which time all treated plants were compared to untreated controls and visually evaluated for injury. Plant response ratings, summarized in Table A, are based on a 0 to 100 scale where 0 is no effect and 100 is complete control. A dash (-) response means no test result.

[2] = test system: blackgrass (Alopecurus myosuroides); assay: Test A greenhouse herbicide test, postemergence; conditions: for Blackgrass plant response rating: 0 to 100 scale, 0 is no effect, 100 is complete control
Excerpt: as §1

[3] = test system: ragweed (common ragweed, Ambrosia elatior); assay: Test A greenhouse herbicide test, pre- and postemergence
Excerpt: (§2) Seeds of plant species selected from barnyardgrass (Echinochloa crus-galli), kochia (Kochia scoparia), ragweed (common ragweed, Ambrosia elatior), ryegrass, Italian (Italian ryegrass, Lolium multiflorum), crabgrass, large (large crabgrass, Digitaria sanguinalis), foxtail, giant (giant foxtail, Setaria faberii), momingglory (Ipomoea spp.), pigweed (Amaranthus retroflexus), velvetleaf (Abutilon theophrasti), wheat (Triticum aestivum), and corn (Zea mays) were planted into a blend of loam soil and sand and treated preemergence with a directed soil spray using test chemicals formulated in a non-phytotoxic solvent mixture which included a surfactant.
as §1

[4] = test system: pigweed (Amaranthus retroflexus); assay: as above
Excerpt: as §2, §1

[5] = test system: foxtail, giant (giant foxtail, Setaria faberii); assay: as above
Excerpt: as §2, §1

[6] = test system: corn (Zea mays); assay: as above; conditions: Postemergence; for Corn plant response rating: 0 to 100 scale, 0 is no effect, 100 is complete control
Excerpt: as §2, §1

[7] = test system: kochia (Kochia scoparia); assay: as above
Excerpt: as §2, §1

[8] = test system: barnyardgrass (Echinochloa crus-galli); assay: as above
Excerpt: as §2, §1

[9] = test system: ryegrass, Italian (Italian ryegrass, Lolium multiflorum); assay: as above
Excerpt: as §2, §1

[10] = test system: wheat (Triticum aestivum); assay: as above; conditions: Postemergence; for Wheat plant response rating: 0 to 100 scale, 0 is no effect, 100 is complete control
Excerpt: as §2, §1

[11] = 125 g ai/ha, 0 to 100 scale where 0 is no effect and 100 is complete control
[12] = Postemergence, 125 g ai/ha, 0 to 100 scale where 0 is no effect and 100 is complete control
[13] = Postemergence, 500 g ai/ha, 0 to 100 scale, 0 is no effect, 100 is complete control
[14] = Preemergence, 125 g ai/ha, 0 to 100 scale where 0 is no effect and 100 is complete control
[15] = Preemergence, 500 g ai/ha, 0 to 100 scale, 0 no effect, 100 complete control
[16] = Preemergence, 500 g ai/ha, 0 to 100 scale where 0 is no effect and 100 is complete control
[17] = 500 g ai/ha, visual rating after approx. 10 d, 0 to 100 scale (0 no effect, 100 complete control)
[18] = Postemergence, 500 g ai/ha, visual rating after approx. 10 d, 0 to 100 scale (0 no effect, 100 complete control)

CCc1ccc2ccccc2c1-c1c(OC(=O)OC(C)C)c(C)nn(C)c1=O [Compound 39]
Plant response rating, Galium [1, 11]: 90
Galium plant response rating ([1]; 500 g ai/ha): 100
Plant response rating, Blackgrass [2, 11]: 30
Blackgrass plant response rating ([2]; 500 g ai/ha): 70
Plant response rating, Ragweed [3, 12]: 50
Ragweed plant response rating [3, 13]: 90
Ragweed plant response rating [3, 14]: 10
Plant response rating, Ragweed [3, 15]: 70
Plant response rating, Pigweed [4, 12]: 50
Pigweed plant response rating [4, 13]: 80
Pigweed plant response rating [4, 14]: 80
Plant response rating, Pigweed [4, 15]: 80
Plant response rating, Foxtail, Giant [5, 12]: 0
Foxtail, Giant plant response rating [5, 13]: 60
Foxtail, Giant plant response rating [5, 14]: 0
Plant response rating, Foxtail, Giant [5, 15]: 60
Plant response rating, Corn [6, 11]: 0
Corn plant response rating ([6]; 500 g ai/ha): 0
Plant response rating, Kochia [7, 12]: 30
Kochia plant response rating [7, 13]: 30
Kochia plant response rating [7, 14]: 0
Plant response rating, Kochia [7, 15]: 0
Plant response rating, Barnyardgrass [8, 12]: 0
Barnyardgrass plant response rating [8, 13]: 10
Barnyardgrass plant response rating [8, 14]: 0
Plant response rating, Barnyardgrass [8, 15]: 10
Plant response rating, Ryegrass, Italian [9, 12]: 90
Ryegrass, Italian plant response rating [9, 13]: 60
Ryegrass, Italian plant response rating [9, 14]: 40
Plant response rating, Ryegrass, Italian [9, 15]: 50
Plant response rating, Wheat [10, 11]: 0
Wheat plant response rating ([10]; 500 g ai/ha): 10

Cc1ccc2ccccc2c1-c1c(OC(=O)C2CC2)c(C)nn(C)c1=O [Compound 76]
Plant response rating, Galium [1, 11]: 70
Galium plant response rating ([1]; 500 g ai/ha): 80
Plant response rating, Blackgrass [2, 11]: 0
Blackgrass plant response rating ([2]; 500 g ai/ha): 10
Plant response rating, Ragweed [3, 12]: 0
Ragweed plant response rating [3, 13]: 20
Ragweed plant response rating [3, 14]: 0
Plant response rating, Ragweed [3, 16]: 50
Plant response rating, Pigweed [4, 12]: 10
Pigweed plant response rating [4, 13]: 20
Pigweed plant response rating [4, 14]: 20
Plant response rating, Pigweed [4, 16]: 50
Plant response rating, Foxtail, Giant [5, 12]: 0
Foxtail, Giant plant response rating [5, 13]: 20
Foxtail, Giant plant response rating [5, 14]: 0
Plant response rating, Foxtail, Giant [5, 16]: 20
Plant response rating, Corn [6, 11]: 0
Corn plant response rating ([6]; 500 g ai/ha): 0
Plant response rating, Kochia [7, 12]: 20
Kochia plant response rating [7, 13]: 40
Kochia plant response rating [7, 14]: 0
Plant response rating, Kochia [7, 16]: 0
Plant response rating, Barnyardgrass [8, 12]: 0
Barnyardgrass plant response rating [8, 13]: 30
Barnyardgrass plant response rating [8, 14]: 0
Plant response rating, Barnyardgrass [8, 15]: 30
Plant response rating, Ryegrass, Italian [9, 12]: 40
Ryegrass, Italian plant response rating [9, 13]: 80
Ryegrass, Italian plant response rating [9, 14]: 50
Plant response rating, Ryegrass, Italian [9, 16]: 70
Plant response rating, Wheat [10, 11]: 0
Wheat plant response rating ([10]; 500 g ai/ha): 0

COc1nn(C)c(=O)c(-c2c(C)sc3ccccc23)c1OC(C)=O [Compound 141]
Plant response rating, Galium [1, 11]: 70
Plant response rating, Galium [1, 17]: 90
Plant response rating, Blackgrass [2, 11]: 0
Plant response rating, Blackgrass [2, 17]: 50
Plant response rating, Ragweed [3, 12]: 60
Plant response rating, Ragweed [3, 18]: 40
Plant response rating, Ragweed [3, 16]: 60
Plant response rating, Pigweed [4, 12]: 0
Plant response rating, Pigweed [4, 18]: 30
Pigweed plant response rating [4, 14]: 40
Plant response rating, Pigweed [4, 16]: 60
Plant response rating, Foxtail, Giant [5, 12]: 20
Plant response rating, Foxtail, Giant [5, 18]: 70
Foxtail, Giant plant response rating [5, 14]: 30
Plant response rating, Foxtail, Giant [5, 16]: 70
Plant response rating, Corn [6, 11]: 0
Plant response rating, Corn [6, 17]: 0
Plant response rating, Kochia [7, 12]: 10
Plant response rating, Kochia [7, 18]: 30
Kochia plant response rating [7, 14]: 0
Plant response rating, Kochia [7, 16]: 60
Plant response rating, Barnyardgrass [8, 12]: 20
Plant response rating, Barnyardgrass [8, 18]: 50
Barnyardgrass plant response rating [8, 14]: 50
Plant response rating, Barnyardgrass [8, 16]: 90
Plant response rating, Ryegrass, Italian [9, 12]: 70
Plant response rating, Ryegrass, Italian [9, 18]: 90
Plant response rating, Ryegrass, Italian [9, 16]: 80
Plant response rating, Wheat [10, 11]: 0
Plant response rating, Wheat [10, 17]: 0
